Experiments:
[1] = target: T1, D3 DAR (Homo sapiens, UniProt P35462); experiment: [3H]-methylspiperone radioligand binding assay; details: indicated concentrations, FIG. 1B
Description: Compounds were tested for their ability to compete with the orthosteric radioligand [^3H]-methylspiperone for binding to the D3 DAR using HEK cells transiently transfected with the D3 DAR as described in the detailed protocol below presented in Table 5. Cells were cultured in Dulbecco's modified Eagle's Medium (Corning, catalogue no. 10-013) containing 10% FBS, 1,000 units/mL Penicillin, […] Streptomycin, 100 mM sodium pyruvate, 1 μg/mL Gentamicin, and […] G418. All cells were maintained at 37° C. in 5% CO2 and 90% humidity. For radioligand binding assays cells were removed mechanically using calcium-free Earle's balanced salt solution (EBSS). Intact cells were collected by centrifugation and then lysed with 5 mM Tris-HCl and 5 mM MgCl2 at pH 7.4. Homogenates were centrifuged at 30,000×g for 30 minutes. The membranes were re-suspended in EBSS (US Biological, catalogue no. E0249-05) pH 7.4 to a concentration of 16 μg/mL. For competition binding studies, membrane preparations were incubated for 90 minutes at room temperature with various concentrations of compound and a single concentration of [^3H]-methylspiperone (Perkin Elmer, NET856) in a reaction volume of […]. Non-specific binding was determined in the presence of 4 μM (+)-butaclamol (Sigma-Aldrich, catalogue no. D033). Bound ligand was separated from unbound by filtration through GF/C filters using a PerkinElmer cell harvester and quantified on a Top-count (PerkinElmer). Ki values were determined using Cheng-Prusoff equation from observed IC50 values and ligand Kd values from separate saturation experiments.

[2] = target: T1, D3 DAR; experiment: Go BRET activation assay, D3 DAR; assay type: cell-based; details: EC80 DA (30 nM)
Description: (§1) Briefly, HEK293T cells transiently expressing either the D2 DAR or D3 DAR and GαoA-Rluc8, untagged-β1, and mVenus-γ2 were harvested with EBSS, plated in 96-well white plates at 20,000 cells/well in DPBS and incubated at RT for 45 min. […] BRET signal was determined by quantifying and calculating the ratio of the light emitted by mVenus (525 nm) over that emitted by RLuc8 (485 nm) using a PHERAstar FSX Microplate Reader (BMG Labtech).

[3] = target: D2 DAR (Homo sapiens, UniProt P14416); experiment: cAMP CAMYEL biosensor assay, D2 DAR; assay type: cell-based; details: FIG. 3C right
D2 DAR, sequence (P14416 whole entry): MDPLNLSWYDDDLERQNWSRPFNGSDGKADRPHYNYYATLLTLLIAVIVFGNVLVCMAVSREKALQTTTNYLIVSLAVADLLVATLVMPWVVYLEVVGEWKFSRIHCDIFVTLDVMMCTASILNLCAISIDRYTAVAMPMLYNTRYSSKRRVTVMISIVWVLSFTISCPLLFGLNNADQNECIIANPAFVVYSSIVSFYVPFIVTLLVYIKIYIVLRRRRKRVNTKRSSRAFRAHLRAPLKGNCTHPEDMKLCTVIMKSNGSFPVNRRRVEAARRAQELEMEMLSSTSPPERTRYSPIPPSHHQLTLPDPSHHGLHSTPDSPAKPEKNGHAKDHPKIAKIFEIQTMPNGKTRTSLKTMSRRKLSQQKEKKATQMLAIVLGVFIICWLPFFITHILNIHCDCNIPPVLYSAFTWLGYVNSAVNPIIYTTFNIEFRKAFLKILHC
Description: as §1, with “cAMP CAMYEL biosensor assay: HEK293” for “Briefly, HEK293T”, “expressing” for “expressing either”, “the CAMYEL cAMP biosensor (yellow fluorescence protein-Epac-Rluc)” for “GαoA-Rluc8, untagged-β1, and mVenus-γ2”, “room temperature” for “RT”

[4] = target: T1, D3 DAR; experiment: DiscoverX D3 DAR β-arrestin recruitment assay; assay type: cell-based; parameters: host or cells: CHO
Summary of the method: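 CHO cells overexpressing D3 DAR fused to a ProLink β-galactosidase fragment plus a β-arrestin–β-galactosidase deletion mutant fusion. Receptor activation drives β-arrestin recruitment and enzyme complementation. Chemiluminescent read-out after detection substrate is added.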

T1 sequence (P35462 whole entry): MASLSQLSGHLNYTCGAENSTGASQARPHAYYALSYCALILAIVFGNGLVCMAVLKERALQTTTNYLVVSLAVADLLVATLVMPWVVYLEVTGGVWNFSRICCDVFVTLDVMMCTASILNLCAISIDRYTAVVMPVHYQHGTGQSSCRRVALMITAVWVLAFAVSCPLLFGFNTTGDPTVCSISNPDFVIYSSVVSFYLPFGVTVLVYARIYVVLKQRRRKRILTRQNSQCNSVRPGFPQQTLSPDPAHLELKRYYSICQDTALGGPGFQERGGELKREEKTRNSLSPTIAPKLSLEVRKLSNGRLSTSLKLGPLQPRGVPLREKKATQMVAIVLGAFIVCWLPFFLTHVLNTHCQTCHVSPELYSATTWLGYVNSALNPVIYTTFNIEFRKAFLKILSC

## Cc1ccc(NS(=O)(=O)c2c(C)[nH]c(C)c2C(=O)N2CCCC2)cc1Cl [Cmp. 1]
[1]
  inhibition of [3H]-methylspiperone binding to the D3 DAR: lacks ability to inhibit the binding
[2]; 5 min, read-out: D3 Go BRET Imax
  Emax: > 100%
[2]
  IC50: 10 to 50 µM
[3]
  antagonist activity at the D2 DAR, cAMP CAMYEL: lacked antagonist activity
[4]; DiscoverX β-arrestin assay, FIG. 1A, 2A, read-out: IC50, inhibition of dopamine-stimulated β-arrestin recruitment to the D3 DAR
  IC50: ~16 µM
[4]; EC80 concentration of DA (30 nM), read-out: D3 DAR IC50
  IC50: 10 to 50 µM
[4]; Imax=maximum inhibition, EC80 DA (30 nM)
  Emax: 80 to 100%

— US20240336604A1 (THE UNITED STATES OF AMERICA, AS REPRESENTED BY THE …, priority 2021, published 2024)
